# Experimental data published in patent US11192869B2, “CFTR regulators and methods of use thereof” (THE REGENTS OF THE UNIVERSITY OF CALIFORNIA, priority 2015, dated 2021).
# “Also recorded” adds a separate entry of the source.
# What was measured:
# human wild-type CFTR = molecular target: T1, human wild-type CFTR (Homo sapiens, UniProt P13569); assay: Short-circuit current in FRT cells expressing wild-type human CFTR; format: cell-based; conditions: short-circuit current, wild-type CFTR
# T1 construct: expressed in transfected cells
# T1 sequence (P13569 whole entry): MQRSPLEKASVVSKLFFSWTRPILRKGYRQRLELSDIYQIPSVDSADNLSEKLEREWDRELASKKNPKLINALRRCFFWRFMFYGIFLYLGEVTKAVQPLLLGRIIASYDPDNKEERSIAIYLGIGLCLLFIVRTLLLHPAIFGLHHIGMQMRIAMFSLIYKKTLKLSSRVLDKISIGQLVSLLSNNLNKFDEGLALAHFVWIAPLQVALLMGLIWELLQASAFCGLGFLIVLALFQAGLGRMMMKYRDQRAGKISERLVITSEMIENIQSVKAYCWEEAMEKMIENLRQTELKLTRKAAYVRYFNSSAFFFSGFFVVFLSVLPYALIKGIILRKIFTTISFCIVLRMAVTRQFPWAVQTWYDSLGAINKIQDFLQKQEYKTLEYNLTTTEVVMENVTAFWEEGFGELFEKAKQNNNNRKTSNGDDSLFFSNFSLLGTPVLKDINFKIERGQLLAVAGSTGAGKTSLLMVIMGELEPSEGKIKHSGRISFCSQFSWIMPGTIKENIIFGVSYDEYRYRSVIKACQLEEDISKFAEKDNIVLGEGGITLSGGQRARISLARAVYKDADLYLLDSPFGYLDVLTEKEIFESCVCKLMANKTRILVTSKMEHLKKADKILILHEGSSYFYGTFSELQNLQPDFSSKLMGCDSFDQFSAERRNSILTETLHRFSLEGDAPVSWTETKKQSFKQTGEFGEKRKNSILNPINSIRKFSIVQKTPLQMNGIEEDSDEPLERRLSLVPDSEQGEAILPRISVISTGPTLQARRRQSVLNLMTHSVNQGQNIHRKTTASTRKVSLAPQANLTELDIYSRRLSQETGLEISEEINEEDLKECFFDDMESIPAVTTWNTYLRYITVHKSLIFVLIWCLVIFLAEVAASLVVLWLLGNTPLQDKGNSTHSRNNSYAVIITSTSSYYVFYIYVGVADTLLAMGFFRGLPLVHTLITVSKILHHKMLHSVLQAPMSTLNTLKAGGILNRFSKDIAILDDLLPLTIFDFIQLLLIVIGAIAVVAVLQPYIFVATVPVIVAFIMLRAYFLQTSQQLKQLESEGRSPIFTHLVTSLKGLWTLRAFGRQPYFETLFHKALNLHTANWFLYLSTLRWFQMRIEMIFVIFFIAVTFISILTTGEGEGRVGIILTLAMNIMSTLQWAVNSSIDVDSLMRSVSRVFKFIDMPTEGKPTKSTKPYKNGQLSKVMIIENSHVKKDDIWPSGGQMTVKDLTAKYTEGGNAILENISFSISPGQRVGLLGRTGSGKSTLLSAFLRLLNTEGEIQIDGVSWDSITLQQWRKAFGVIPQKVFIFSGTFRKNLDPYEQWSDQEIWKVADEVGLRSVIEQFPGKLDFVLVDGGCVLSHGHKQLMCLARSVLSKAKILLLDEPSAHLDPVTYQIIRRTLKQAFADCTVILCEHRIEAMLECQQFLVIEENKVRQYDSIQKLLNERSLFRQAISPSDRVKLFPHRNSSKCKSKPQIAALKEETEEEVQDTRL
# Procedure: Short-circuit current measurement. Short-circuit current was measured in FRT cells stably expressing wild-type human CFTR cultured on porous filters as described. The basolateral solution contained 130 mM NaCl, 2.7 mM KCl, 1.5 mM KH2PO4, 1 mM CaCl2, 0.5 mM MgCl2, 10 mM glucose, and 10 mM Na-HEPES (pH 7.3, 37° C.). In the apical solution 65 mM NaCl was replaced by Na gluconate, and CaCl2 was increased to 2 mM, and the basolateral membrane was permeabilized with 250 μg/ml amphotericin B. Short-circuit current was measured in freshly harvested adult mouse colon at 37° C. using symmetrical Krebs-bicarbonate buffer.
# Short-circuit current. Fischer rat thyroid (FRT) cells stably expressing wild-type human CFTR were cultured on Snapwell inserts (Corning Costar, Corning N.Y., USA) for short-circuit current (Isc) measurements. After 6-9 days in culture, when the transepithelial resistance was >1000 Ω/cm^2, the inserts were mounted in an Ussing chamber system (World Precision Instruments, Sarasota, Fla., USA). The basolateral solution contained 130 mM NaCl, 2.7 mM KCl, 1.5 mM KH2PO4, 1 mM CaCl2, 0.5 mM MgCl2, 10 mM glucose, and 10 mM Na-HEPES (pH 7.3). In the apical bathing solution, 65 mM NaCl was replaced by Na gluconate, and CaCl2 was increased to 2 mM. Both solutions were bubbled with air and maintained at 37° C. The basolateral membrane was permeabilized with 250 μg/ml amphotericin B (26, 27). Hemichambers were connected to a DVC-1000 voltage clamp via Ag/AgCl electrodes and 3 M KCl agar bridges for Isc recording.
# [1] = Pharmacokinetics after ip or oral administration; format: in vivo, mouse
# Procedure: Pharmacokinetics. All animal experiments were approved by UCSF Institutional Animal Care and Use Committee. Female CD1 mice were treated with 10 mg/kg CFTRact-J027 (saline containing 5% DMSO and 10% Kolliphor HS 15) either intraperitoneally (ip) or orally. Blood was collected at 15, 30, 60, 150, 240 and 360 min after treatment by orbital puncture and centrifuged at 5000 rpm for 15 min to separate plasma. Plasma samples (60 μL) were mixed with 300 μL acetonitrile and centrifuged at 13000 rpm for 20 min, and 90 μL of the supernatant was used for LC/MS. The solvent system consisted of a linear gradient from 5 to 95% acetonitrile over 16 min (0.2 ml/min flow). Mass spectra was acquired on a mass spectrometer (Waters 2695 and Micromass ZQ) using electrospray (+) ionization, mass ranging from 100 to 1500 Da, cone voltage 40 V. Calibration standards were prepared in plasma from untreated mice to which known amounts of CFTRact-J027 were added.
# [2] = 7-day chronic administration toxicity study; format: in vivo, mouse
# Excerpt: Chronic administration and toxicity studies.
# ocular surface = assay: Ocular surface potential difference measurements; format: in vivo, mouse; conditions: wild-type mice, 1-10 μM
# Procedure: Ocular surface potential difference measurements. Open-circuit transepithelial PD were measured continuously in anesthetized mice in response to serial perfusions of different solutions over the ocular surface, as described (21). Mice were anesthetized with Avertin (2,2,2-tribromoethanol, 125 mg/kg intraperitoneal, Sigma-Aldrich, St. Louis, Mo., USA), and core temperature was maintained at 37° C. using a heating pad. Eyes were oriented with the cornea and conjunctiva facing upward and exposed by retracting the eyelid with cross-action forceps. Solutions were isosmolar (320±10 mOsM; compositions provided in ref. 21) and contained 10μ[…] □ indomethacin to prevent CFTR activation by prostaglandins. The ocular surface was perfused at 6 mL/min through plastic tubing using a multireservoir gravity pinch-valve system (ALA Scientific, Westbury, N.Y., USA) and variable-flow peristaltic pump (medium flow model; Fisher Scientific, Fair Lawn, N.J., USA). A probe catheter was fixed 1 mm above the cornea using a micropositioner and a suction cannula was positioned 3 mm from the orbit. The measuring electrode was in contact to the perfusion catheter and connected to a high-impedance voltmeter (IsoMilivolt Meter; WPI). The reference electrode was grounded via a winged 21-gauge needle filled with isosmolar saline, and inserted subcutaneously in the abdomen. Measuring and reference electrodes consisted of Ag/AgCl with 3 M KCl agar bridges.
# Ocular surface potential difference measurements. Open-circuit transepithelial PD were measured continuously in anesthetized mice in response to serial perfusions of different solutions over the ocular surface, as described (21). Mice were anesthetized with Avertin (2,2,2-tribromoethanol, 125 mg/kg intraperitoneal, Sigma-Aldrich, St. Louis, Mo., USA), and core temperature was maintained at 37° C. using a heating pad. Eyes were oriented with the cornea and conjunctiva facing upward and exposed by retracting the eyelid with cross-action forceps. […]
smiles,measurement,setting,value
"Nc1ccc([N+](=O)[O-])cc1-c1nc2ccccc2n(Cc2ccccc2)c1=O [CFTRact-J027, 3-(2-amino-5-nitrophenyl)-1-benzylquinoxalin-2(1H)-one]",CFTR activation (in words),human wild-type CFTR,fully activated CFTR chloride conductance
same,elimination half-life of serum concentration,[1]; 10 mg/kg ip,~16 min
same,bioavailability (in words),[1]; 10 mg/kg oral,very low bioavailability; also recorded: minimal bioavailability
same,blood levels relative to EC50 for CFTR activation,[1]; 10 mg/kg oral,well below the EC50
same,in vivo toxicity after chronic administration,"[2]; 7-day study, 10 mg/kg oral, 10 mg/kg",did not show significant; also recorded: without apparent toxicity
same,major serum chemistry and blood parameters,[2]; 7-day treated mice,did not affect
same,change in ocular surface PD (in words),ocular surface,large hyperpolarizations
